Molecules are shown by their SMILES. Starred links: 1 amine or outer side, 2 acyl side, 3 side chain; linkers in the order of their positions; H or OH if unused. Positions of bridges follow the written chain, without caps; N, C: chain ends. Non-standard residues stand in square brackets, D forms with d. Residues, ends and D or L forms follow the SMILES beside them. *: point of attachment. Phe(3-OCH2COOH) = N[C@@H](Cc1cccc(OCC(=O)O)c1)C(=O)O; Phe(4-COOH) = N[C@@H](Cc1ccc(C(=O)O)cc1)C(=O)O; Trp(6-aza) = N[C@@H](Cc1c[nH]c2cnccc12)C(=O)O; Trp(7-aza) = N[C@@H](Cc1c[nH]c2ncccc12)C(=O)O; Phe(3-OMe) = COc1cccc(C[C@H](N)C(=O)O)c1; Gly(N(CH2)3COOH) = O=C(O)CCCNCC(=O)O; X1 = CCCCCCC[C@H](N[*:1])C(=O)[*:2]; NMeF = CN[C@@H](Cc1ccccc1)C(=O)O; 3Pal = N[C@@H](Cc1cccnc1)C(=O)O; Ahp(2) = CCCCC[C@H](N)C(=O)O; Carboxymethyl = O=C(O)C*; NMeA = CN[C@@H](C)C(=O)O; Sar = CNCC(=O)O

This is an account of results in patent publication EP4786487A1, “PEPTIDE” (Peptidream Inc, priority 2023, dated 2025).

In one test the target is T1, GDF-11 (Homo sapiens, UniProt O95390).
T1 construct: purchased R&D systems 1958-GD-G8/CF
T1 sequence (O95390 299-407): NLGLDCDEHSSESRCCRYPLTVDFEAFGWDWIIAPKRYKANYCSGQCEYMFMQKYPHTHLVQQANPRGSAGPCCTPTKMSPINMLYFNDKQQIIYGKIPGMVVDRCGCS
Kind of test: HepG2 reporter gene assay, Evaluation Procedure (2): 2-concentrations assay, GDF-11 inhibition. Format: cell-based. As to conditions: GDF-11 10 ng/mL; for inhibition at 0.03 µM: HepG2, peptide 30nM, read-out: GDF11 Inhibition 30nM; for inhibition at 0.1 µM: HepG2, peptide 100nM, read-out: GDF11 Inhibition 100nM. The method, boiled down: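 HepG2 cells carrying the transfected pGL3(CAGA)12-luc reporter, a pGL3 vector with luciferase placed downstream of 12 CAGA repeats, were stimulated with GDF-11 at a final 10 ng/mL together with test peptide. Blank wells received no GDF-11 and no peptide. Plates were incubated 20 to 24 hours at 37°C with 5% CO2. Luminescence from One-Glo substrate was read to calculate percent inhibition.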
For orientation: A reporter such as luciferase makes a cellular process visible.

The next test concerns the target T2, Myostatin (Homo sapiens, UniProt O14793).
T2 construct: active myostatin (also called mature myostatin) is a homodimer consisting of two C-terminal growth factor domains; purchased R&D systems 788-G8/CF
T2 sequence (O14793 267-375): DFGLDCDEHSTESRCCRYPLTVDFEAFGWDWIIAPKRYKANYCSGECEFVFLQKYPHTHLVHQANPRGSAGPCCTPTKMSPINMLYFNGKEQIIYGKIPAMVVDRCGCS
Kind of test: HepG2 reporter gene assay, Evaluation Procedure (2): 2-concentrations assay, myostatin inhibition. The format is cell-based. As to conditions: Myostatin 10 ng/mL, HepG2; for inhibition at 0.03 µM: peptide 30nM, read-out: Myostatin Inhibition 30nM; for inhibition at 0.1 µM: peptide 100nM, read-out: Myostatin Inhibition 100nM. The method, boiled down: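 HepG2 cells (HB-8065, ATCC) carrying the transfected pGL3(CAGA)12-luc reporter plasmid were treated with myostatin (788-G8/CF, R&D systems) at a final concentration of 10 ng/mL plus peptide and incubated at 37°C, 5% CO2 for 20 to 24 hours. Luminescence was read after adding PBS mixed 1:1 with One-Glo substrate, and inhibition rate was calculated.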

The term inhibition denotes the share of the control response that was lost under treatment. As for `CC[C@H](C)[C@@H]1NC(=O)[C@H](Cc2ccccc2)N(C)C(=O)[C@H](Cc2ccc(O)cc2)NC(=O)[C@H](Cc2c[nH]c3ncccc23)NC(=O)[C@H](C)NC(=O)CN(CCCC(=O)O)C(=O)CSC[C@H](C(=O)O)NC(=O)[C@H](Cc2ccccc2)N(C)C(=O)[C@H](C)N(C)C(=O)[C@H](CC(C)C)NC(=O)[C@H](Cc2ccccc2)N(C)C(=O)[C@H](CCCNC(=N)N)NC(=O)[C@H](Cc2ccc(OCC(=O)O)cc2)NC(=O)[C@H](Cc2cccc(OC)c2)NC(=O)[C@H](C)N(C)C1=O` [Myostatin_99_v127] ({CH2CO}-[Gly(N(CH2)3COOH)]A[Trp(7-aza)]Y[NMeF]I[NMeA][Phe(3-OMe)]Y(Carboxymethyl)R[NMeF]L[NMeA][NMeF][dC]-OH; thioether N-15), at GDF-11, the inhibition at 0.03 µM worked out at 0% and the inhibition at 0.1 µM is 0%. At Myostatin, the inhibition at 0.03 µM was 31% and the inhibition at 0.1 µM came to 57%.
As to `CCCCC[C@@H]1NC(=O)[C@H](Cc2ccccc2)N(C)C(=O)[C@H](CCCNC(=N)N)NC(=O)[C@H](Cc2cccnc2)NC(=O)[C@H](Cc2cccc(OCC(=O)O)c2)NC(=O)CN(C)C(=O)[C@H]([C@@H](C)CC)NC(=O)[C@H](Cc2ccccc2)N(C)C(=O)[C@H](Cc2ccc(O)cc2)NC(=O)[C@H](Cc2c[nH]c3ccccc23)NC(=O)[C@H](C)NC(=O)[C@H](C)NC(=O)CSC[C@H](C(=O)O)NC(=O)[C@H](Cc2ccccc2)N(C)C(=O)[C@H](C)N(C)C1=O` [Myostatin_99_v205] ({CH2CO}-AAWY[NMeF]I[Sar][Phe(3-OCH2COOH)][3Pal]R[NMeF][Ahp(2)][NMeA][NMeF][dC]-OH; thioether N-15), the inhibition at 0.03 µM came to 6% on GDF-11 and 37% on Myostatin. The inhibition at 0.1 µM came to 1% at GDF-11 and 69% at Myostatin.
In the same order, the values of `CCCCC[C@@H]1NC(=O)[C@H](Cc2ccccc2)N(C)C(=O)[C@H](CCCNC(=N)N)NC(=O)[C@H](Cc2ccc(C(=O)O)cc2)NC(=O)[C@H](Cc2cccc(OCC(=O)O)c2)NC(=O)CN(C)C(=O)[C@H]([C@@H](C)CC)NC(=O)[C@H](Cc2ccccc2)N(C)C(=O)[C@H](Cc2ccc(O)cc2)NC(=O)[C@H](Cc2c[nH]c3ccccc23)NC(=O)[C@H](C)NC(=O)[C@H](C)NC(=O)CSC[C@H](C(N)=O)NC(=O)[C@H](Cc2ccccc2)N(C)C(=O)[C@H](C)N(C)C1=O` [Myostatin_99_v206] ({CH2CO}-AAWY[NMeF]I[Sar][Phe(3-OCH2COOH)][Phe(4-COOH)]R[NMeF][Ahp(2)][NMeA][NMeF][dC]-NH2; thioether N-15) are 0%, 88%, 0% and 97%.
The matching figures for `CCCCCCC[C@@H]1NC(=O)[C@H](Cc2ccccc2)N(C)C(=O)[C@H](CCCNC(=N)N)NC(=O)[C@H](Cc2ccc(C(=O)O)cc2)NC(=O)[C@H](Cc2cccc(OCC(=O)O)c2)NC(=O)CN(C)C(=O)[C@H]([C@@H](C)CC)NC(=O)[C@H](Cc2ccccc2)N(C)C(=O)[C@H](Cc2ccc(O)cc2)NC(=O)[C@H](Cc2c[nH]c3cnccc23)NC(=O)[C@H](C)NC(=O)[C@H](C)NC(=O)CSC[C@H](C(=O)O)NC(=O)[C@H](Cc2ccccc2)N(C)C(=O)[C@H](C)N(C)C1=O` [Myostatin_99_v208] ({CH2CO}-AA[Trp(6-aza)]Y[NMeF]I[Sar][Phe(3-OCH2COOH)][Phe(4-COOH)]R[NMeF][X1][NMeA][NMeF][dC]-OH; thioether N-15): 0%, 98%, 20% and 100%.
